The source of these data is patent publication US6566408B1, “Aqueous surfactant compositions of monoalkyl phosphate ester salts and amphoteric surfactants” (Rhodia, Inc., priority 2000, dated 2003).

The series relates to human subjects (skin of the back). Nature of the series: 14-Day Cumulative Irritation Assay (occlusive patch, comparative dermal irritation potential). It counts as in vivo. The text has this:
In the following study, the tested solutions were at a total surfactant actives content of 0.5% by weight. […] 14-Day Cumulative Irritation Assay of the Comparitive Dermal Irritation Potential of a Series of Test Articles The objective of this study was to determine the comparative dermal irritation potential of a series of nine (9) test articles on twenty-five (25) subjects using a 14-Day Cumulative Irritation Assay. Twenty-five (25) subjects, 1 male and 24 females, ranging in age from 18 to 55 years were empaneled for this test. […] Each day during the duration of the study, patches were removed and the sites were evaluated for irritation using the 6-point scoring system outlined below. […] This procedure was repeated at each visit for a period of fourteen (14) consecutive days, excluding Sundays (Saturday's patches were worn until Monday. Monday's irritation scores were recorded as Sunday's scores and Sunday was counted as an exposure day). Patch test sites were evaluated daily and scores were recorded on a Cumulative Irritation Patch Test recording form. Individual test article scores were calculated via summation of the results for each day. […] The following day's score was “carried back” and recorded for the missed visit day. […]

Turning to `CCCCCCCCCCCCOS(=O)(=O)[O-].[Na+]` [Test Article #9, Sodium lauryl sulphate], the “Total Cum. Irrit. Scores” value (sum of total cumulative score for 14 days, 22 subjects, highest possible 924, solutions at 0.5% total surfactant actives) worked out at 844.5. Also, the “Mean Cum. Irrit. Scores” value (total divided by 22 subjects, highest possible 42, 14 days, 0.5% total surfactant actives) was 38.4.
